Results taken from patent publication US9464064B2, “HCV helicase inhibitors and methods of use thereof” (University of Kansas, priority 2011, dated 2016).

Biological target: T1, HCV NS3 helicase NS3h_1b(con1) (Hepatitis C virus genotype 1b, UniProt Q9WMX2)
T1 construct: truncated C-terminally His-tagged NS3 proteins lacking the N-terminal protease, called NS3h; His-tag (C); made in house
Experiment: MBHA screen of NCI mechanistic set library at 20 μM (percent inhibition, compound interference)
Type: biochemical
Settings: compounds at 20 μM; for Inh. (%) (Inhibition): calculated from Equation 1
Procedure, shortened: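 Molecular beacon-based DNA unwinding assay; compounds screened at 20 μM in triplicate, with DMSO-only negative and 500 nM dT20 positive controls. Fluorescence (ex 643/em 670 nm) was read before and 30 min after adding ATP to 1 mM. Percent inhibition came from the change relative to DMSO controls; interference from pre-ATP fluorescence versus DMSO controls.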

[1] = assay interference calculated with Equation 2 (fluorescence vs DMSO-only controls before ATP)
[2] = MBHA with DNA substrate, assay interference calculated with Equation 2

T1 sequence (Q9WMX2 1192-1657): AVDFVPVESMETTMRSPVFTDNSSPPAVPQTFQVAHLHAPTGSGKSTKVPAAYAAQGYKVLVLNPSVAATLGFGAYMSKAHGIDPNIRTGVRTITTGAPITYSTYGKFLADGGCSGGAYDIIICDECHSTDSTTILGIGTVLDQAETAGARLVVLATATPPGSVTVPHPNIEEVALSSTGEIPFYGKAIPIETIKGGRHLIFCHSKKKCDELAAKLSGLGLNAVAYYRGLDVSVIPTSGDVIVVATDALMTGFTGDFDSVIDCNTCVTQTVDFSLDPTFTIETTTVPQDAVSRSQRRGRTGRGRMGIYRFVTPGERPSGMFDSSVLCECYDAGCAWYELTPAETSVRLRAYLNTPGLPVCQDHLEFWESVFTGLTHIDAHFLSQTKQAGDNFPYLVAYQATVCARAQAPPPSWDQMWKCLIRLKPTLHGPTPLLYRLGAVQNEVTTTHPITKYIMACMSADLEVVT

Inh. (%) (Inhibition) (MBHA with a DNA substrate) | Int.* (Ratio) (Interference) [1] | Int.* (Ratio) (Interference) [2] | Inh. (%) (Inhibition) (MBHA with DNA substrate) | Compound
 |  | 1.03 | −18.7 | O=C1C(Br)=C(Br)C(=O)c2ccccc21 [Compound 618332]
7.0 | 1.02 |  |  | Nc1nc(N)c(N=Nc2ccccc2)c(=O)[nH]1 [Compound 5200]
 |  | 0.91 | 13.5 | Cc1ccccc1OCC(COC(=O)Nc1ccccc1)OC(=O)Nc1ccccc1 (centres unmarked) [Compound 635824]
 |  | 1.04 | −10.4 | CCCCCC(/C=C/[C@@H]1CC(=O)C[C@H]1O[Si](C)(C)C(C)(C)C)OCOCCOC (some centres unmarked) [Compound 689228]
 |  | 1.16 | 6.3 | CCOC(=O)c1cc2c(OC)cc(OC)cc2oc1=O [Compound 111119]
 |  | 1.01 | −2.8 | Cc1[nH]c(=O)[nH]c(=O)c1/C=C/C(=O)NC(CO)CC(C)C (centres unmarked) [Compound 224117]
 |  | 0.98 | −0.7 | Cc1ccc2c(c1)C1(C)OC(C=CC1=O)O2 (centres unmarked) [Compound 359892]
−29.5 | 1.00 |  |  | C=C(C)[C@@H]1CC[C@]2(C(=O)O)CC[C@]3(C)[C@H](CC[C@@H]4[C@@]5(C)CC[C@H](O)C(C)(C)[C@@H]5CC[C@]43C)[C@@H]12 [Compound 113090]
−20.3 | 0.98 |  |  | O=C1c2ccccc2C(=O)C1C(c1ccc([N+](=O)[O-])cc1)C1C(=O)c2ccccc2C1=O [Compound 643148]
10.2 | 0.94 |  |  | Nc1nc(=S)c2ncn([C@@H]3C[C@H](O)[C@@H](CO)O3)c2[nH]1 [Compound 71851]
 |  | 0.92 | 0.1 | O=C(CC1(O)C(=O)Nc2c(Cl)ccc(Cl)c21)c1ccc(Cl)cc1 (centres unmarked) [Compound 635437]
 |  | 0.93 | −16.9 | CCN(CC)CCCC(C)NC(=O)c1ccc2c(c1)C(=O)c1ccccc1C2=O.Cl (centres unmarked) [Compound 331757]
 |  | 0.88 | 17.9 | CN(C)CCOC1(Cc2ccc(Cl)cc2Cl)CCC(C(C)(C)C)CC1.Cl (centres unmarked) [Compound 670224]
 |  | 1.05 | −10.4 | O=c1ncccn1C1OC(CO)C(O)C1F (centres unmarked) [Compound 625355]
8.7 | 0.92 |  |  | O=C(CC(O)(C(F)(F)F)C(F)(F)Cl)CC(O)(C(F)(F)F)C(F)(F)Cl (centres unmarked) [Compound 659174]
−4.8 | 1.06 |  |  | CC(=O)Oc1ccc(C(c2ccc(OC(C)=O)cc2)c2ccccn2)cc1 [Compound 614826]
 |  | 0.95 | −13.6 | O=C1C=C(Nc2ccccc2C(=O)CC(=O)C(=O)Nc2ccc(Cl)c(Cl)c2)c2ccccc2C1=O [Compound 641250]
 |  | 0.59 | 38.8 | CCN1/C(=C\C(C)=C\c2sc3ccccc3[n+]2CC)Sc2ccccc21.[I-] [Compound 96932]

Compound | Inh. (%) (Inhibition) (MBHA with a DNA substrate) | Int.* (Ratio) (Interference) [1] | Int.* (Ratio) (Interference) [2] | Inh. (%) (Inhibition) (MBHA with DNA substrate)
C/C(=N\N=C(/[Se])N1CC2CCC(CC2)C1)c1ccccn1 [Compound 323241] | 10.7 | 0.90 |  | 
CC[C@](C)(O)C(=O)O[C@H]1C(=O)O[C@@H]2C[C@H]3C(C)=CC(=O)[C@@H](O)[C@]3(C)[C@H]3C4(O)OC[C@]32[C@@H]1[C@@H](C)[C@H]4O [Compound 132791] | 8.2 | 0.98 |  | 
CC12CCC3C(CCC4CC(OC(=O)Cc5ccc(N(CCCl)CCCl)cc5)CCC43C)C1CCC(=O)N2 (centres unmarked) [Compound 290205] |  |  | 1.03 | 34.9
COC1CC(CC2CCC(C)C(C(C)C(=O)O)O2)OC2(OC(C)(C3CCC(C)(C4OC(C5OC(O)(CO)C(C)CC5C)CC4C)O3)CC2C)C1C (centres unmarked) [Compound 292567] |  |  | 0.85 | −11.3
